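The compound was tested at five concentrations on cells cultured in 96-well plates, with a 48-hour exposure period. Abbreviation: GI50, concentration required for 50% inhibition of growth.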 The source made the active and inactive calls. Rule as the data show it: active = GI50 up to about 1.1 µM and inactive = higher.
Legend:
Assay in all cases: NCI tumour cell line growth inhibition, 48 h
HOP-92 = test system: HOP-92
DU-145 = test system: DU-145
SR = test system: SR
NCI-H226 = test system: NCI-H226
HL-60 = test system: HL-60
786-0 = test system: 786-0
CCRF-CEM = test system: CCRF-CEM
A498 = test system: A498
K562 = test system: K562
HOP-62 = test system: HOP-62
OVCAR-3 = test system: OVCAR-3
MDA-MB-231 = test system: MDA-MB-231
KM12 = test system: KM12
M14 = test system: M14
OVCAR-8 = test system: OVCAR-8
SK-OV-3 = test system: SK-OV-3
TK-10 = test system: TK-10
UACC-62 = test system: UACC-62
SF-539 = test system: SF-539
SF-295 = test system: SF-295
BT-549 = test system: BT-549
COLO 205 = test system: COLO 205
OVCAR-5 = test system: OVCAR-5
CAKI-1 = test system: CAKI-1
SNB-75 = test system: SNB-75
U-251 = test system: U-251
SW-620 = test system: SW-620
MDA-N = test system: MDA-N
SK-MEL-28 = test system: SK-MEL-28
MDA-MB-435 = test system: MDA-MB-435
PC-3 = test system: PC-3
SNB-19 = test system: SNB-19
LOX IMVI = test system: LOX IMVI
IGROV-1 = test system: IGROV-1
NCI-H460 = test system: NCI-H460
MCF7 = test system: MCF7
UO-31 = test system: UO-31
ACHN = test system: ACHN
SN12C = test system: SN12C
A549 = test system: A549
NCI-H23 = test system: NCI-H23
SK-MEL-2 = test system: SK-MEL-2
HCT-116 = test system: HCT-116
EKVX = test system: EKVX
OVCAR-4 = test system: OVCAR-4
Malme-3M = test system: Malme-3M
SK-MEL-5 = test system: SK-MEL-5
HCT-15 = test system: HCT-15
UACC-257 = test system: UACC-257
SF-268 = test system: SF-268
RPMI-8226 = test system: RPMI-8226
NCI-H522 = test system: NCI-H522
NCI/ADR-RES = test system: NCI/ADR-RES
HCC 2998 = test system: HCC 2998
T47D = test system: T47D
HT-29 = test system: HT-29
MOLT-4 = test system: MOLT-4
Hs-578T = test system: Hs-578T
RXF 393 = test system: RXF 393

With `Cc1ccc(S(=O)(=O)N/N=C2/CC[C@H](C(C)(C)C)C[C@@H]2C)cc1` the GI50 (HOP-92) was 16.7 µM (inactive), the GI50 (DU-145) was 15.2 µM (inactive) and the GI50 (SR) was 31.8 µM (inactive). For the same compound, the GI50 (NCI-H226) was 13.8 µM (inactive), the GI50 (HL-60) was 35.6 µM (inactive) and the GI50 (786-0) was 17.1 µM (inactive). For the same compound, the GI50 (CCRF-CEM) was 15.8 µM (inactive), the GI50 (A498) was 17.6 µM (inactive) and the GI50 (K562) was 16.6 µM (inactive). For the same compound, the GI50 (HOP-62) was 13.8 µM (inactive), the GI50 (OVCAR-3) was 12.6 µM (inactive) and the GI50 (MDA-MB-231) was 21.2 µM (inactive). For the same compound, the GI50 (KM12) was 22.6 µM (inactive), the GI50 (M14) was 13.7 µM (inactive) and the GI50 (OVCAR-8) was 16 µM (inactive). For the same compound, the GI50 (SK-OV-3) was 18.4 µM (inactive), the GI50 (TK-10) was 16.4 µM (inactive) and the GI50 (UACC-62) was 15.7 µM (inactive). For the same compound, the GI50 (SF-539) was 18.2 µM (inactive), the GI50 (SF-295) was 15.8 µM (inactive) and the GI50 (BT-549) was 16.2 µM (inactive). The GI50 (COLO 205) was 17 µM (inactive), the GI50 (OVCAR-5) was 18.2 µM (inactive) and the GI50 (CAKI-1) was 13.5 µM (inactive). For the same compound, the GI50 (SNB-75) was 17.8 µM (inactive), the GI50 (U-251) was 17.4 µM (inactive) and the GI50 (SW-620) was 22.5 µM (inactive). For the same compound, the GI50 (MDA-N) was 17.1 µM (inactive), the GI50 (SK-MEL-28) was 17 µM (inactive) and the GI50 (MDA-MB-435) was 16 µM (inactive). The GI50 (PC-3) was 18.3 µM (inactive), the GI50 (SNB-19) was 18.5 µM (inactive) and the GI50 (LOX IMVI) was 14.7 µM (inactive). For the same compound, the GI50 (IGROV-1) was 14.9 µM (inactive), the GI50 (NCI-H460) was 17 µM (inactive) and the GI50 (MCF7) was 18.5 µM (inactive). For the same compound, the GI50 (UO-31) was 13.7 µM (inactive), the GI50 (ACHN) was 16.6 µM (inactive) and the GI50 (SN12C) was 16.3 µM (inactive). The GI50 (A549) was 16.4 µM (inactive), the GI50 (NCI-H23) was 17.1 µM (inactive) and the GI50 (SK-MEL-2) was 17.1 µM (inactive). For the same compound, the GI50 (HCT-116) was 14.8 µM (inactive), the GI50 (EKVX) was 18 µM (inactive) and the GI50 (OVCAR-4) was 0.574 µM (active). For the same compound, the GI50 (Malme-3M) was 16.1 µM (inactive), the GI50 (SK-MEL-5) was 13.8 µM (inactive) and the GI50 (HCT-15) was 16.6 µM. The GI50 (UACC-257) was 13.9 µM (inactive), the GI50 (SF-268) was > 10 µM (inactive) and the GI50 (RPMI-8226) was 33.4 µM (inactive). The GI50 (NCI-H522) was > 10 µM (inactive), the GI50 (NCI/ADR-RES) was 15 µM (inactive) and the GI50 (HCC 2998) was 18.9 µM (inactive). For the same compound, the GI50 (T47D) was 10.6 µM (inactive), the GI50 (HT-29) was 17.1 µM (inactive) and the GI50 (MOLT-4) was 12.5 µM (inactive). For the same compound, the GI50 (Hs-578T) was 18.2 µM (inactive).

In the case of `COc1ccc(C2SCC(=O)N2NC(=O)C(C)Oc2ccc(Cl)cc2Cl)cc1` (stereo not given), the GI50 (HOP-92) is reported as 21.1 µM (inactive), the GI50 (DU-145) is reported as 53 µM (inactive) and the GI50 (SR) is reported as < 0.01 µM (active). For the same compound, the GI50 (NCI-H226) was 16.4 µM (inactive), the GI50 (HL-60) was 14.2 µM (inactive) and the GI50 (786-0) was 20.3 µM (inactive). The GI50 (A498) was 25 µM (inactive), the GI50 (K562) was 27 µM (inactive) and the GI50 (HOP-62) was 20.6 µM (inactive). For the same compound, the GI50 (OVCAR-3) was 66.2 µM (inactive), the GI50 (MDA-MB-231) was 26.7 µM (inactive) and the GI50 (KM12) was 55.1 µM (inactive). The GI50 (RXF 393) was 25.6 µM (inactive), the GI50 (M14) was 51.2 µM (inactive) and the GI50 (OVCAR-8) was 31.3 µM (inactive). For the same compound, the GI50 (SK-OV-3) was 49.2 µM (inactive), the GI50 (TK-10) was 42.6 µM (inactive) and the GI50 (UACC-62) was 33.9 µM (inactive). For the same compound, the GI50 (SF-539) was 17 µM (inactive), the GI50 (SF-295) was 36.1 µM (inactive) and the GI50 (BT-549) was 23.7 µM (inactive). The GI50 (COLO 205) was 73.8 µM (inactive), the GI50 (OVCAR-5) was > 100 µM (inactive) and the GI50 (CAKI-1) was 21.8 µM (inactive). For the same compound, the GI50 (SNB-75) was 22 µM (inactive), the GI50 (U-251) was 33.7 µM (inactive) and the GI50 (SW-620) was > 100 µM (inactive). The GI50 (MDA-N) was 83 µM (inactive), the GI50 (SK-MEL-28) was 30.9 µM (inactive) and the GI50 (MDA-MB-435) was 76.7 µM (inactive). For the same compound, the GI50 (PC-3) was 27.4 µM (inactive), the GI50 (SNB-19) was 35 µM (inactive) and the GI50 (LOX IMVI) was 41.1 µM (inactive). For the same compound, the GI50 (IGROV-1) was 37 µM (inactive), the GI50 (NCI-H460) was 81.1 µM (inactive) and the GI50 (MCF7) was 32.1 µM (inactive). The GI50 (UO-31) was 88.5 µM (inactive), the GI50 (ACHN) was 72.3 µM (inactive) and the GI50 (SN12C) was 41.7 µM (inactive). For the same compound, the GI50 (A549) was 31.6 µM (inactive), the GI50 (NCI-H23) was 64.9 µM (inactive) and the GI50 (SK-MEL-2) was 50.2 µM (inactive). The GI50 (HCT-116) was 36.6 µM (inactive), the GI50 (EKVX) was 60 µM (inactive) and the GI50 (OVCAR-4) was 23.6 µM (inactive). The GI50 (SK-MEL-5) was 46.5 µM (inactive), the GI50 (HCT-15) was greater than 100 µM and the GI50 (UACC-257) was 42.4 µM (inactive). For the same compound, the GI50 (SF-268) was > 100 µM (inactive), the GI50 (RPMI-8226) was 30.7 µM (inactive) and the GI50 (NCI-H522) was 91.2 µM (inactive). The GI50 (NCI/ADR-RES) was 56.6 µM (inactive), the GI50 (HCC 2998) was 55.6 µM (inactive) and the GI50 (T47D) was 28.4 µM (inactive). The GI50 (HT-29) was > 100 µM (inactive), the GI50 (MOLT-4) was 28.3 µM (inactive) and the GI50 (Hs-578T) was 34.5 µM (inactive).
